# Data published in US6407138B1, “Composition and method for preparing electrically neutral amino acid chelates free of interfering ions” (Albion International, Inc., priority 2000, dated 2002).
# Assays:
# [1] = zero ionic strength; reaction M^2+ + (Gly)^- <-> M(Gly)^+; cited from earlier work
# Particle size = type: physicochemical
# Excerpt: The particle size found in Sample 1 and Sample 2 was about 70 mesh.
# [2] = Rubbing between thumb and finger (hygroscopicity); type: physicochemical; conditions: rubbed between thumb and finger; moisture from thumb, finger and surrounding air
# Excerpt: Sample 1 was further compared to Sample 2 by rubbing a portion of each between the thumb and finger.
# [3] = Addition to stimulated gastric solution (stability in acid solution, colour change); type: physicochemical; conditions: added to stimulated gastric solution
# Protocol: Finally, Sample 2 was added to a stimulated gastric solution which caused the product to change color. Sample 1 was similarly added to a stimulated gastric solution.
# [4] = Shaking in a plastic bag (electrostatic behaviour of the powder); type: physicochemical; conditions: shaken in a plastic bag
# Protocol: A 10:1 mixture of copper bisglycinate to terra alba (CaSO4) [Sample 1] was prepared and shaken together in a plastic bag. Next, a pure copper bisglycinate without the presence of terra alba [Sample 2] was also prepared and shaken in a plastic bag.
Compound,log of the equilibrium constant [1],particle size (Particle size),hygroscopicity: balling up with moisture [2],color change in stimulated gastric solution (stability in acid solution) [3],electrostatic behaviour: product sticking to the walls of the bag [4]
copper,8.56,,,,
"NCC(=O)[O-].NCC(=O)[O-].[Cu+2] [Sample 2, copper bisglycinate]",,about 70 mesh,quickly balled up,change color,a blue hazei of product stuck the walls of the bag
